Patent publication US20230279016A1, “Tetrahydropyrazolopyrimidines and Related Analogs for Inhibiting YAP/TAZ-TEAD” (THE KATHOLIEKE UNIVERSITEIT LEUVEN, priority 2021, published 2023)
pEC50: −log10 of the molar value.

Columns and labels:
Format in all cases: cell-based
[1] = system: NCI-H2052 mesothelioma cell line; test: Mesothelioma cell line proliferation assay, NCI-H2052; details: NCI-H2052, 6 days with compound, cell viability by ATPlite
Experimental: (§1) Mesothelioma cell lines, NCI-H226 and NCI-H2052 (all sourced from the ATCC cell culture collection) are plated in 96-well plates (Corning® 96 Well White Polystyrene Microplate clear flat bottom, white polystyrene (TC-Treated)), at 1500 cells/well in full medium (RPMI 1640 ATCC modification with L-glutamine, HEPES, Phenol Red, Sodium Pyruvate, High glucose, Low sodium bicarbonate and 10% fetal bovine serum). Cells are incubated overnight at 37° C. in an incubator with 5% CO2. Then compounds, dissolved in DMSO, are added in dose-response. Cells are incubated with compound dilutions for another 6 days at 37° C. in an incubator with 5% CO2. Cell viability is quantitated using the ATPlite kit (Perkin-Elmer) and the luminescence is read-out using an Envision instrument (Perkin-Elmer). The amount of relative light units produced using the ATPlite kit is used to calculated percent of inhibition.
(§2) The activities of example compounds tested are depicted in the table below. The activity ranges A, B and C refer to EC50 values in the mesothelioma cell line proliferation assay as described as follows: “A”: EC50 <1 μM; “B” : 1 μM EC50 ≤10 μM and “C” : EC50 >10 μM. NT: not tested.

[2] = system: NCI-H226 mesothelioma cell line; test: Mesothelioma cell line proliferation assay, NCI-H226; details: NCI-H226, 6 days with compound, cell viability by ATPlite
Experimental: as §1, §2

[3] = system: YAP/TAZ-TEAD transcription; test: Reporter gene assay for measuring the inhibition of YAP/TAZ-TEAD transcription (TEAD-responsive element luciferase reporter in Hek293T cells); details: Hek293T cells transiently transfected with TEAD-responsive element luciferase reporter, 24 hours incubation
Summary of the method: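 Hek293T cells transiently transfected with TEAD-responsive luciferase reporter, exposed to compound for 24 h at 37° C/5% CO2, then read by luminescence. Percent inhibition normalized to vehicle (0%) and positive control inhibitor (100%); EC50 reported as activity ranges.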

FC(F)(F)c1ccc(N2CC(C3CC(Br)=NO3)Cn3nccc32)cc1 (single isomer, unassigned) [Cpd. No. 086-Dia1, 3-bromo-5-(4-(4-(trifluoromethyl)phenyl)-4,5,6,7-tetrahydropyrazolo[1,5-a]pyrimidin-6-yl)-4,5-dihydroisoxazole] showed a pEC50 ([1]; Homo sapiens, NCI-H2052, 144 h) greater than 6.00, a pEC50 ([2]; Homo sapiens, NCI-H226, 144 h) greater than 6.00 and a pEC50 ([3]; Homo sapiens, HEK-293T, 24 h) greater than 6.00.

With C=CC(=O)NCC1CN(c2ccc(OC(F)(F)F)cc2)c2ccnn2C1 (centres unmarked) [Cpd. No. 011, N-((4-(4-(trifluoromethoxy)phenyl)-4,5,6,7-tetrahydropyrazolo[1,5-a]pyrimidin-6-yl)methyl)acrylamide] the pEC50 [1] was greater than 6.00, the pEC50 ([2]; Homo sapiens, NCI-H226, 144 h) was greater than 6.00 and the pEC50 ([3]; Homo sapiens, HEK-293T, 24 h) was greater than 6.00.

In the case of C=CC(=O)NCC1Cc2c(cnn2C)N(c2ccc(OC(F)(F)F)cc2)C1 (centres unmarked) [Cpd. No. 070, N-((1-methyl-4-(4-(trifluoromethoxy)phenyl)-4,5,6,7-tetrahydro-1H-pyrazolo[4,3-b]pyridin-6-yl)methyl)acrylamide], the pEC50 ([1]; Homo sapiens, NCI-H2052, 144 h) was greater than 6.00, the pEC50 ([2]; Homo sapiens, NCI-H226, 144 h) was greater than 6.00 and the pEC50 ([3]; Homo sapiens, HEK-293T, 24 h) was greater than 6.00.

For C=CC(=O)NCC1CN(c2ccc(C(F)(F)F)cc2)c2cc(CC3CC3)nn2C1 (centres unmarked) [Cpd. No. 032, N-((2-(cyclopropylmethyl)-4-(4-(trifluoromethyl)phenyl)-4,5,6,7-tetrahydropyrazolo[1,5-a]pyrimidin-6-yl)methyl)acrylamide], the pEC50 ([1]; Homo sapiens, NCI-H2052, 144 h) was greater than 6.00, the pEC50 ([2]; Homo sapiens, NCI-H226, 144 h) was greater than 6.00 and the pEC50 ([3]; Homo sapiens, HEK-293T, 24 h) was greater than 6.00.

C=CC(=O)NC1CN(c2ccc(C(F)(F)F)c(F)c2)c2ccnn2C1 (single isomer, unassigned) [Cpd. No. 064-En1, (R)- or (S)-N-(4-(3-fluoro-4-(trifluoromethyl)phenyl)-4,5,6,7-tetrahydropyrazolo[1,5-a]pyrimidin-6-yl)acrylamide] gave a pEC50 ([1]; Homo sapiens, NCI-H2052, 144 h) greater than 6.00 and a pEC50 ([2]; Homo sapiens, NCI-H226, 144 h) greater than 6.00.

In the case of C=CC(=O)NCC1CN(c2ccc(C3CC3)cc2)c2ccnn2C1 (single isomer, unassigned) [Cpd. No. 022-En1, (R)- or (S)-N-((4-(4-cyclopropylphenyl)-4,5,6,7-tetrahydropyrazolo[1,5-a]pyrimidin-6-yl)methyl)acrylamide], the pEC50 [1] was greater than 6.00, the pEC50 ([2]; Homo sapiens, NCI-H226, 144 h) was greater than 6.00 and the pEC50 ([3]; Homo sapiens, HEK-293T, 24 h) was greater than 6.00.

Work on C=CC(=O)NCC1CN(c2ccc(OC(F)(F)F)cc2)c2cc(C(F)(F)F)nn2C1 (single isomer, unassigned) [Cpd. No. 035-En2, (R)- or (S)-N-((4-(4-(trifluoromethoxy)phenyl)-2-(trifluoromethyl)-4,5,6,7-tetrahydropyrazolo[1,5-a]pyrimidin-6-yl)methyl)acrylamide] yielded a pEC50 ([1]; Homo sapiens, NCI-H2052, 144 h) of 5.00 to 6.00 and a pEC50 ([2]; Homo sapiens, NCI-H226, 144 h) greater than 6.00.

C=CC(=O)NCC1CN(c2ccc(OC(F)(F)F)c(F)c2)c2ccnn2C1 (single isomer, unassigned) [Cpd. No. 018-En2, (R)- or (S)-N-((4-(3-fluoro-4-(trifluoromethoxy)phenyl)-4,5,6,7-tetrahydropyrazolo[1,5-a]pyrimidin-6-yl)methyl)acrylamide] gave a pEC50 [1] greater than 6.00 and a pEC50 [2] greater than 6.00.

Work on C=CC(=O)NCC1CN(c2ccc(OC(F)(F)F)c(F)c2)c2ccnn2C1 (single isomer, unassigned) [Cpd. No. 018-En1, (R)- or (S)-N-((4-(3-fluoro-4-(trifluoromethoxy)phenyl)-4,5,6,7-tetrahydropyrazolo[1,5-a]pyrimidin-6-yl)methyl)acrylamide] yielded a pEC50 ([1]; Homo sapiens, NCI-H2052, 144 h) greater than 6.00 and a pEC50 ([2]; Homo sapiens, NCI-H226, 144 h) greater than 6.00.

C=CC(=O)NCC1CN(c2ccc(Br)cc2)c2ccnn2C1 (single isomer, unassigned) [Cpd. No. 021-En2, (R)- or (S)-N-((4-(4-bromophenyl)-4,5,6,7-tetrahydropyrazolo[1,5-a]pyrimidin-6-yl)methyl)acrylamide] gave a pEC50 ([1]; Homo sapiens, NCI-H2052, 144 h) greater than 6.00 and a pEC50 ([2]; Homo sapiens, NCI-H226, 144 h) greater than 6.00.

C=CC(=O)NCC1CN(c2cccc(C(F)(F)F)c2)c2ccnn2C1 (single isomer, unassigned) [Cpd. No. 003-En1, (R)- or (S)-N-((4-(3-(trifluoromethyl)phenyl)-4,5,6,7-tetrahydropyrazolo[1,5-a]pyrimidin-6-yl)methyl)acrylamide] was tested, and the pEC50 ([1]; Homo sapiens, NCI-H2052, 144 h) was less than 5.00 and the pEC50 ([2]; Homo sapiens, NCI-H226, 144 h) was 5.00 to 6.00.

With C=CC(=O)NCC1CN(c2ccn(C)c(=O)c2)c2ccnn2C1 (single isomer, unassigned) [Cpd. No. 024-En2, (R)- or (S)-N-((4-(1-methyl-2-oxo-1,2-dihydropyridin-4-yl)-4,5,6,7-tetrahydropyrazolo[1,5-a]pyrimidin-6-yl)methyl)acrylamide] the pEC50 [3] was less than 4.70.

Compound C=CC(=O)NCC1CN(CC#Cc2ccccc2)c2ccnn2C1 (centres unmarked) [Cpd. No. 056, N-((4-(3-phenylprop-2-yn-1-yl)-4,5,6,7-tetrahydropyrazolo[1,5-a]pyrimidin-6-yl)-methyl)acrylamide] has a pEC50 ([3]; Homo sapiens, HEK-293T, 24 h) greater than 6.00.

With C=CC(=O)NCC1CN(c2ccc(C(F)(F)F)cc2)c2cnc(C(F)(F)F)n2C1 (centres unmarked) [Cpd. No. 094, N-((6-(trifluoromethyl)-1-(4-(trifluoromethyl)phenyl)-1,2,3,4-tetrahydroimidazo[1,5-a]pyrimidin-3-yl)methyl)acrylamide] the pEC50 ([3]; Homo sapiens, HEK-293T, 24 h) was greater than 6.00.

Compound C=CC(=O)NCC1CN(c2ccn(C)c(=O)c2)c2ccnn2C1 (single isomer, unassigned) [Cpd. No. 024-En1, (R)- or (S)-N-((4-(1-methyl-2-oxo-1,2-dihydropyridin-4-yl)-4,5,6,7-tetrahydropyrazolo[1,5-a]pyrimidin-6-yl)methyl)acrylamide] has a pEC50 ([3]; Homo sapiens, HEK-293T, 24 h) of less than 4.70.

For C=CC(=O)NCC1CN(c2ccc(C(F)(F)F)c(F)c2)c2ccnn2C1 (single isomer, unassigned) [Cpd. No. 015-En1, (R)- or (S)-N-((4-(3-fluoro-4-(trifluoromethyl)phenyl)-4,5,6,7-tetrahydropyrazolo[1,5-a]pyrimidin-6-yl)methyl)acrylamide], the pEC50 [3] was greater than 6.00.

In the case of C=CC(=O)NCC1CN(S(=O)(=O)c2ccc(C(F)(F)F)cc2)c2ccnn2C1 (centres unmarked) [Cpd. No. 045-En1, N-((4-((4-(trifluoromethyl)phenyl)sulfonyl)-4,5,6,7-tetrahydropyrazolo[1,5-a]pyrimidin-6-yl)methyl)acrylamide], the pEC50 [3] was 4.70 to 6.00.

Compound Cn1cc2c(n1)CC(CNS(C)(=O)=O)CN2c1ccc(C(F)(F)F)cc1 (centres unmarked) [Cpd. No. 077, N-((2-methyl-4-(4-(trifluoromethyl)phenyl)-4,5,6,7-tetrahydro-2H-pyrazolo[4,3-b]pyridin-6-yl)methyl)methanesulfonamide] has a pEC50 ([3]; Homo sapiens, HEK-293T, 24 h) of 4.70 to 6.00.

C=CC(=O)NCC1CN(CC2CCCCC2)c2ccnn2C1 (single isomer, unassigned) [Cpd. No. 055-En2, (R)- or (S)-N-((4-(cyclohexylmethyl)-4,5,6,7-tetrahydropyrazolo[1,5-a]pyrimidin-6-yl)-methyl)acrylamide] showed a pEC50 ([1]; Homo sapiens, NCI-H2052, 144 h) of less than 5.00 and a pEC50 ([2]; Homo sapiens, NCI-H226, 144 h) greater than 6.00.

Work on C=CC(=O)NC1CN(c2ccc(C(F)(F)F)cc2)c2ccnn2C1 (single isomer, unassigned) [Cpd. No. 061-En1, (R)- or (S)-N-(4-(4-(trifluoromethyl)phenyl)-4,5,6,7-tetrahydropyrazolo[1,5-a]pyrimidin-6-yl)acrylamide] yielded a pEC50 [3] greater than 6.00.

Work on C=CC(=O)NCC1CN(c2ccc(OC(F)(F)F)cc2)c2cc(C)nn2C1 (single isomer, unassigned) [Cpd. No. 030-En2, (R)- or (S)-N-((2-methyl-4-(4-(trifluoromethoxy)phenyl)-4,5,6,7-tetrahydropyrazolo[1,5-a]pyrimidin-6-yl)methyl)acrylamide] yielded a pEC50 [3] greater than 6.00.
